Measured values from patent US6469006B1, “Antiviral indoleoxoacetyl piperazine derivatives” (priority 1999, dated 2002).

System: single-round infectious HIV-1 reporter virus
Experiment: microbe, parasite or virus in culture
Format: cell-based
Conditions: Human immunodeficiency virus 1, HeLa-CD4/CCR5, 72 h, read-out: % Inhibition @ 10 μM
Text: The virus infection was quantified 3 days after infection by measuring luciferase expression from integrated viral DNA in the infected cells (Chen et al, Ref. 41).
Virus production—Human embryonic Kidney cell line, 293, propagated in Dulbecco's Modified Eagle Medium (Life Technologies, Gaithersburg, Md.) containing 10% fetal Bovine serum (FBS, Sigma, St. Louis, Mo.).
Virus infection—Human epithelial cell line, HeLa, expressing the HIV-1 receptors CD4 and CCR5 was propagated in Dulbecco's Modified Eagle Medium (Life Technologies, Gaithersburg, Md.) containing 10% fetal Bovine serum (FBS, Sigma, St. Louis, Mo.) and supplemented with 0.2 mg/ml Geneticin (Life Technologies, Gaithersburg, Md.) and 0.4 mg/ml Zeocin (Invitrogen, Carlsbad, Calif.).
Virus-Replication defective reporter virus was produced by co-transfecting human embryonic Kidney 293 cells with an HIV-1 envelope DNA expression vector and a proviral cDNA containing an envelope deletion mutation and the luciferase reporter gene inserted in place of HIV-1 nef sequences (Chen, 1994). Transfections were performed using lipofectAMINE PLUS reagent as described by the manufacturer (Life Technologies, Gaithersburg, Md.).
1. Compound was added to HeLa CD4 CCR5 cells plated in 96 well plates at a cell density of 5×10^4 cells per well in 100 ul Dulbecco's Modified Eagle Medium containing 10% fetal Bovine serum at a concentration of <20 uM.
2. 100 ul of replication defective reporter virus in Dulbecco's Modified Eagle Medium was then added to the plated cells and compound at a multiplicity of infection (MOI) of 0.01, resulting in a final volume of 200 ul per well and a final compound concentration of <10 uM.
3. Samples were harvested 72 hours after infection.
4. Viral infection was monitored by measuring luciferase expression from viral DNA in the infected cells using a luciferase reporter gene assay kit (Roche Molecular Biochemicals, Indianapolis, Ind.). Infected cell supernatants were removed and 50 ul of Dulbecco's Modified Eagle Medium (without phenol red) and 50 ul of luciferase assay reagent reconstituted as described by the manufacturer (Roche Molecular Biochemicals, Indianapolis, Ind.) was added per well. Luciferase activity was then quantified by measuring luminescence using a Wallac microbeta scintillation counter.

SMILES | inhibition at 10 µM
C[C@@H]1CN(C(=O)c2ccccn2)CCN1C(=O)C(=O)c1c[nH]c2c(C#N)cccc12 [Example 212] | > 98%

Same assay, conditions: Table 1, Examples 35-90; HeLa CD4 CCR5 cells, luciferase reporter virus, 3 days after infection

SMILES | % Inhibition @ 10 uM
Nc1cccc(C(=O)N2CCN(C(=O)C(=O)c3c[nH]c4ccccc34)CC2)c1 [Example 72] | 87%
Nc1cccc(C(=O)N2CCN(C(=O)C(=O)c3c[nH]c4c(F)ccc(F)c34)CC2)c1 [Example 73] | >98%
CC1CN(C(=O)c2cccc(N)c2)CCN1C(=O)C(=O)c1c[nH]c2c(F)ccc(F)c12 (centres unmarked) [Example 74] | >98%
CC1CN(C(=O)c2ccc(N)cc2)CCN1C(=O)C(=O)c1c[nH]c2c(F)ccc(F)c12 (centres unmarked) [Example 75] | >98%
CC1CN(C(=O)c2cccc(N)c2)CCN1C(=O)C(=O)c1c[nH]c2cccc(F)c12 (centres unmarked) [Example 76] | >98%
COc1ccc(Cl)c2[nH]cc(C(=O)C(=O)N3CCN(C(=O)c4cccc(N)c4)CC3C)c12 (centres unmarked) [Example 77] | >98%
COc1ccc(Cl)c2[nH]cc(C(=O)C(=O)N3CCN(C(=O)c4ccc(N)cc4)CC3C)c12 (centres unmarked) [Example 78] | >98%
COc1cccc2[nH]cc(C(=O)C(=O)N3CCN(C(=O)c4cccc(N)c4)CC3C)c12 (centres unmarked) [Example 79] | >98%
COc1ccc(F)c2c(C(=O)C(=O)N3CCN(C(=O)c4cccc(N)c4)CC3C)c[nH]c12 (centres unmarked) [Example 80] | >98%
COc1ccc(F)c2c(C(=O)C(=O)N3CCN(C(=O)c4ccc(N)cc4)CC3C)c[nH]c12 (centres unmarked) [Example 81] | >98%
CC(=O)Oc1ccccc1C(=O)N1CCN(C(=O)C(=O)c2c[nH]c3cccc(F)c23)CC1 [Example 82] | 91%
CC(=O)Oc1cccc(C(=O)N2CCN(C(=O)C(=O)c3c[nH]c4cccc(F)c34)CC2)c1 [Example 83] | >98%
CC(=O)Oc1ccc(C(=O)N2CCN(C(=O)C(=O)c3c[nH]c4cccc(F)c34)CC2)cc1 [Example 84] | 98%
CC(=O)Oc1ccc(C(=O)N2CCN(C(=O)C(=O)c3c[nH]c4cccc(Cl)c34)CC2)cc1 [Example 85] | 93%
CC(=O)Oc1cccc(C(=O)N2CCN(C(=O)C(=O)c3c[nH]c4cccc(Cl)c34)CC2)c1 [Example 86] | >98%
O=C(C(=O)N1CCN(C(=O)c2ccccc2O)CC1)c1c[nH]c2cccc(F)c12 [Example 87] | 86%
O=C(C(=O)N1CCN(C(=O)c2cccc(O)c2)CC1)c1c[nH]c2cccc(F)c12 [Example 88] | >98%
O=C(C(=O)N1CCN(C(=O)c2ccc(O)cc2)CC1)c1c[nH]c2cccc(F)c12 [Example 89] | 95%

Same assay, conditions: Table 4; HeLa CD4 CCR5 cells, luciferase reporter virus, 3 days after infection

SMILES | % Inhibition @ 10 μM
CC1CN(C(=O)c2ccccn2)CCN1C(=O)C(=O)c1c[nH]c2c(F)ccc(F)c12 (centres unmarked) [Entry 196] | >98%
Cc1ccc(F)c2c(C(=O)C(=O)N3CCN(C(=O)c4ccccn4)CC3C)c[nH]c12 (centres unmarked) [Entry 197] | 93%
CC1CN(C(=O)c2ccc(Br)o2)CCN1C(=O)C(=O)c1c[nH]c2c(F)ccc(F)c12 (centres unmarked) [Entry 198] | >98%
COc1ccc(OC)c2c(C(=O)C(=O)N3CCN(C(=O)c4ccc(Br)o4)CC3C)c[nH]c12 (centres unmarked) [Entry 199] | >98%
COC(=O)c1cccc2c(C(=O)C(=O)N3CCN(C(=O)c4ccc(Br)o4)CC3C)c[nH]c12 (centres unmarked) [Entry 200] | >98%
CC1CN(C(=O)c2ccccn2)CCN1C(=O)C(=O)c1c[nH]c2c(F)ccc(F)c12 (centres unmarked) [Entry 201] | >98%
CC1CN(C(=O)c2ccccn2)CCN1C(=O)C(=O)c1c[nH]c2cccc(F)c12 (centres unmarked) [Entry 202] | >98%
CC1CN(C(=O)c2ccccn2)CCN1C(=O)C(=O)c1c[nH]c2cccc(Cl)c12 (centres unmarked) [Entry 203] | 80%
CC1CN(C(=O)c2ccccn2)CCN1C(=O)C(=O)c1c[nH]c2cccc(Br)c12 (centres unmarked) [Entry 204] | 50%
CC1CN(C(=O)c2ccccn2)CCN1C(=O)C(=O)c1c[nH]c2ccc(F)cc12 (centres unmarked) [Entry 205] | 61%
CC1CN(C(=O)c2ccccn2)CCN1C(=O)C(=O)c1c[nH]c2cc(Cl)ccc12 (centres unmarked) [Entry 206] | 88%
CC1CN(C(=O)c2ccccn2)CCN1C(=O)C(=O)c1c[nH]c2c(F)cccc12 (centres unmarked) [Entry 207] | >98%
COc1cccc2c(C(=O)C(=O)N3CCN(C(=O)c4ccccn4)C[C@H]3C)c[nH]c12 [Entry 208] | >98%
Cc1cccc2c(C(=O)C(=O)N3CCN(C(=O)c4ccccn4)C[C@H]3C)c[nH]c12 [Entry 209] | >98%
CCc1cccc2c(C(=O)C(=O)N3CCN(C(=O)c4ccccn4)C[C@H]3C)c[nH]c12 [Entry 210] | 88%
COc1ccc(Cl)c2[nH]cc(C(=O)C(=O)N3CCN(C(=O)c4ccccn4)C[C@H]3C)c12 [Entry 211] | >98%
COc1cccc2[nH]cc(C(=O)C(=O)N3CCN(C(=O)c4ccccn4)C[C@H]3C)c12 [Entry 213] | >98%
COc1ccc(Br)c2[nH]cc(C(=O)C(=O)N3CCN(C(=O)c4ccccn4)C[C@H]3C)c12 [Entry 214] | >98%
COc1ccc(F)c2c(C(=O)C(=O)N3CCN(C(=O)c4ccccn4)C[C@H]3C)c[nH]c12 [Entry 215] | >98%
